Measured values taken from ChEMBL document CHEMBL1145331, “Synthesis of anthranylaldoxime derivatives as estrogen receptor ligands and computational prediction of binding modes” (J Med Chem, 2006).

What was measured:
[1] = molecular target: T1, Estrogen receptor (Homo sapiens) (UniProt P03372); experiment: Displacement of [3H]estradiol from human ERalpha relative to estradiol
T1 sequence (whole entry): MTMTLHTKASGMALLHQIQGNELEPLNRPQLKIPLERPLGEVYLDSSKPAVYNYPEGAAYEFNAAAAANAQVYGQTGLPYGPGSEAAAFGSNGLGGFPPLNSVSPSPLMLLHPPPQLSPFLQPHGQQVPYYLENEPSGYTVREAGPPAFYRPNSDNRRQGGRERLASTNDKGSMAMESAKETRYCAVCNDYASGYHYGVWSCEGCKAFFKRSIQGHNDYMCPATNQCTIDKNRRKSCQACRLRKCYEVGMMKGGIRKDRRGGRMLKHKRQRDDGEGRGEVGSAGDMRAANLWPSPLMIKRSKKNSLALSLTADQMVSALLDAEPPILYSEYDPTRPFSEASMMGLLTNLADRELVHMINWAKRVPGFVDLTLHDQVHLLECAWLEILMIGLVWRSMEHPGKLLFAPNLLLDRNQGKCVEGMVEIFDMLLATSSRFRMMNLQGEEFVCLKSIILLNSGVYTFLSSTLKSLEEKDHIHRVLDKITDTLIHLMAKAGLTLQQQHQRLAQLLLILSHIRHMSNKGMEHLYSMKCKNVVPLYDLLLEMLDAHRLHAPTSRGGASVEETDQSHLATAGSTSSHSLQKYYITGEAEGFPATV

[2] = molecular target: Estrogen receptor beta (Homo sapiens) (UniProt Q92731); experiment: Displacement of [3H]estradiol from human ERbeta relative to estradiol
[3] = molecular target: T2, Estrogen receptor (Homo sapiens) (UniProt Q92731+P03372); experiment: Ratio of Kd for human ERalpha to Kd for human ERbeta; format: protein assay
Estrogen receptor = molecular target: T3, Estrogen receptor (Homo sapiens, UniProt P03372); experiment: Displacement of [3H]estradiol from human ERalpha
T3 sequence (P03372 whole entry): T1 sequence (whole entry)

[4] = molecular target: T2, Estrogen receptor (Homo sapiens); experiment: Ratio of RBA for human ERalpha to RBA for human ERbeta; format: protein assay
[5] = molecular target: T2, Estrogen receptor (Homo sapiens); experiment: Ratio of RBA for human ERbeta to RBA for human ERalpha; format: protein assay

T2 sequence (Q92731 whole entry, looked up, one chain of several): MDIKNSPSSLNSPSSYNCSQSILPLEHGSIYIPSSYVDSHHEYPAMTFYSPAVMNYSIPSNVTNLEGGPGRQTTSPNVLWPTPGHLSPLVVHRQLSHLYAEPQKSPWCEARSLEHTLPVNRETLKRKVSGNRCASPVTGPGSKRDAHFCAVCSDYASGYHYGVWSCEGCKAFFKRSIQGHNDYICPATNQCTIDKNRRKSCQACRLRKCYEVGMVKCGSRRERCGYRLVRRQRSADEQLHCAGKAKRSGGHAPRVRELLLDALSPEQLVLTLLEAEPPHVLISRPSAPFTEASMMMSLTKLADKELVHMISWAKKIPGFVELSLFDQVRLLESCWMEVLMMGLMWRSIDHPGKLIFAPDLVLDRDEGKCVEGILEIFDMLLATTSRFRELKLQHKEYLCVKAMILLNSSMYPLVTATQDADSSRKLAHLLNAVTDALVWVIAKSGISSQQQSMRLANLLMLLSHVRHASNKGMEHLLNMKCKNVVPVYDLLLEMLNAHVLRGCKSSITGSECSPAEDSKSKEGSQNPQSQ
Sequence of Estrogen receptor beta (Homo sapiens) (Q92731 whole entry): as the sequence (Q92731 whole entry, looked up, one chain of several) above

| Compound | relative binding affinity (RBA) [1] | relative binding affinity (RBA) [2] | Selectivity ratio [3] | Kd (Estrogen receptor) [nM] | Selectivity ratio [4] | Selectivity ratio [5] |
| --- | --- | --- | --- | --- | --- | --- |
| CNc1c(/C=N/O)ccc(-c2ccccc2)c1-c1ccc(O)cc1 | 1.17 | 0.72 |  |  |  |  |
| CNc1c(/C=N/O)ccc(-c2ccc(OC)cc2)c1-c1ccc(OC)cc1 | 2.33 | 0.47 |  |  |  |  |
| CNc1c(/C=N/O)ccc(-c2ccc(O)cc2)c1-c1ccc(O)cc1 | 1.96 | 0.14 | 36 |  |  |  |

Second part, the molecule after the results:

| relative binding affinity (RBA) [1] | relative binding affinity (RBA) [2] | Selectivity ratio [3] | Kd (Estrogen receptor) [nM] | Selectivity ratio [4] | Selectivity ratio [5] | Compound |
| --- | --- | --- | --- | --- | --- | --- |
| 5.38 | 1.11 |  | 3.7 |  |  | CNc1c(/C=N/O)ccc(-c2ccc(O)cc2)c1-c1ccccc1 |
| 0.65 | 0.14 |  |  |  |  | CNc1c(/C=N/O)ccc(-c2cccc(OC)c2)c1-c1cccc(OC)c1 |
| 3.91 | 2.13 |  |  | 2 |  | CNc1c(/C=N/O)ccc(-c2cccc(C)c2)c1-c1cccc(C)c1 |
| 0.95 | 1.86 |  |  |  | 2 | CNc1c(/C=N/O)ccc(-c2ccc(C)cc2)c1-c1ccc(C)cc1 |
| 0.14 | 0.05 |  |  |  |  | CNc1c(/C=N/O)ccc(-c2cccc(O)c2)c1-c1cccc(O)c1 |
